Data: patent US10450318B2, “CXCR4 receptor antagonists” (BRISTOL-MYERS SQUIBB COMPANY, priority 2015, dated 2019)

Biological target: T1, CXCR4 receptors (Homo sapiens, UniProt P61073)
T1 construct: expressing endogenous CXCR4 receptors; endogenous in cells; host or cells: CCRF-CEM (human T lymphoblast cells)
Experiment: CXCR4-CEM calcium flux assay, antagonist mode (inhibition of SDF-1α-induced calcium flux)
Assay type: cell-based
Details: inhibition of calcium flux induced by 4 nM SDF-1α in CCRF-CEM cells
Protocol: Exemplary compounds of the invention were tested for their ability to induce or inhibit calcium flux in CCRF-CEM cells. […] CXCR4-CEM Calcium Flux Assays. […] The cells were then equilibrated to room temperature for 30 minutes before assay. […] The serially diluted compounds were diluted to working concentrations with the same assay buffer to 0.5% DMSO. […] Activity of the compounds to induce calcium flux was monitored by FDSS in the “agonist mode” for 90 sec. For “antagonist mode” assessment, the cells are subsequently incubated for 25 min at room temperature. SDF-1α (R&D System Cat#350-NS/CF) was then added at a final concentration of 4 nM to stimulate the cells. Inhibition of SDF-1α-induced calcium flux was monitored by FDSS6000 for 90 sec. […] After correcting for background, EC50 values were determined. […] Inhibition data for the test compound over a range of concentrations was plotted as percentage inhibition of the test compound as compared to an internal control compound.

T1 sequence (P61073 whole entry): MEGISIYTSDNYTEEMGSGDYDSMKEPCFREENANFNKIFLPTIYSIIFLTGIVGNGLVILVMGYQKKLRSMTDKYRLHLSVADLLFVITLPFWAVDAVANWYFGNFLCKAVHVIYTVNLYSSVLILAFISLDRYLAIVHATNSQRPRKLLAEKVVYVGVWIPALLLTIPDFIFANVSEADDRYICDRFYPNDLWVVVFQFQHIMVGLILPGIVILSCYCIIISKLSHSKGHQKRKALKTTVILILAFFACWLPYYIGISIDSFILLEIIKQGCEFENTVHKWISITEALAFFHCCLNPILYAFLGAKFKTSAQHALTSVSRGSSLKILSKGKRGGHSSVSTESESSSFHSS

With `CN(Cc1cn2c(N3CCN(C(=O)OC(C)(C)C)CC3)nccc2n1)[C@H]1CCCc2cccnc21` [Example 3, (S)-tert-Butyl 4-(2-((methyl(5,6,7,8-tetrahydroquinolin-8-yl)amino)methyl)imidazo[1,2-c]pyrimidin-5-yl)piperazine-1-carboxylate] the IC50 was greater than 30000 nM.
With `CN(Cc1cn2c(N3CCN(Cc4cccc(Cl)c4)CC3)nccc2n1)[C@H]1CCCc2cccnc21` [Example 25, (S)-N-[(5-{4-[(3-chlorophenyl)methyl]piperazin-1-yl}imidazo[1,2-c]pyrimidin-2-yl)methyl]-N-methyl-5,6,7,8-tetrahydroquinolin-8-amine] the IC50 was 12 nM.
`CN(Cc1cn2c(N3CCN(Cc4cccc(O)c4)CC3)nccc2n1)[C@H]1CCCc2cccnc21` [Example 69, 3-({4-[2-({methyl[(S)-5,6,7,8-tetrahydroquinolin-8-yl]amino}methyl)imidazo[1,2-c]pyrimidin-5-yl]piperazin-1-yl}methyl)phenol] was tested, and the IC50 was 3.8 nM.
`CN(Cc1cn2c(N3CCN(C(=O)Nc4ccccc4)CC3)nccc2n1)[C@H]1CCCc2cccnc21` [Example 43, 4-[2-({methyl[(S)-5,6,7,8-tetrahydroquinolin-8-yl]amino}methyl)imidazo[1,2-c]pyrimidin-5-yl]-N-phenylpiperazine-1-carboxamide] gave an IC50 of 130 nM.
In the case of `CC(C)N1CCN(c2nccc3nc(CN(C)[C@H]4CCCc5cccnc54)cn23)CC1` [Example 20, (S)-N-methyl-N-({5-[4-(propan-2-yl)piperazin-1-yl]imidazo[1,2-c]pyrimidin-2-yl}methyl)-5,6,7,8-tetrahydroquinolin-8-amine], the IC50 is reported as 9.6 nM.
`CN(Cc1cn2c(N3CCN(Cc4ccccc4)CC3)nccc2n1)[C@H]1CCCc2cccnc21` [Example 37, (S)-N-{[5-(4-benzylpiperazin-1-yl)imidazo[1,2-c]pyrimidin-2-yl]methyl}-N-methyl-5,6,7,8-tetrahydroquinolin-8-amine] was tested, and the IC50 was 23 nM.
Molecule `CN(Cc1cn2c(N3CCN(Cc4ccc(-c5ccccc5)cc4)CC3)nccc2n1)[C@H]1CCCc2cccnc21` [Example 47, (S)-N-methyl-N-[(5-{4-[(4-phenylphenyl)methyl]piperazin-1-yl}imidazo[1,2-c]pyrimidin-2-yl)methyl]-5,6,7,8-tetrahydroquinolin-8-amine] has an IC50 of 9.7 nM.
`CN(Cc1cn2c(N3CCN(Cc4nccn4C)CC3)nccc2n1)[C@H]1CCCc2cccnc21` [Example 51, (S)-N-methyl-N-[(5-{4-[(1-methyl-1H-imidazol-2-yl)methyl]piperazin-1-yl}imidazo[1,2-c]pyrimidin-2-yl)methyl]-5,6,7,8-tetrahydroquinolin-8-amine] showed an IC50 of 6 nM.
With `CC(C)CCN1CCN(c2nccc3nc(CN(C)[C@H]4CCCc5cccnc54)cn23)CC1` [Example 19, (S)-N-methyl-N-({5-[4-(3-methylbutyl)piperazin-1-yl]imidazo[1,2-c]pyrimidin-2-yl}methyl)-5,6,7,8-tetrahydroquinolin-8-amine] the IC50 was 14 nM.
`CN(Cc1cn2c(N3CCNC[C@H]3CO)nccc2n1)[C@H]1CCCc2cccnc21` [Example 77, ((S)-1-(2-((methyl((S)-5,6,7,8-tetrahydroquinolin-8-yl)amino)methyl)imidazo[1,2-c]pyrimidin-5-yl)piperazin-2-yl)methanol] gave an IC50 of 250 nM.
In the case of `CC(=O)N1CCN(c2nccc3nc(CN(C)[C@H]4CCCc5cccnc54)cn23)CC1` [Example 10, (S)-1-(4-(2-((Methyl(5,6,7,8-tetrahydroquinolin-8-yl)amino)methyl)imidazo[1,2-c]pyrimidin-5-yl)piperazin-1-yl)ethanone], the IC50 is reported as 8600 nM.
`NCCCCN(Cc1cn2c(O)nccc2n1)[C@H]1CCCc2cccnc21` [Example 107, (S)-2-(((4-Aminobutyl)(5,6,7,8-tetrahydroquinolin-8-yl)amino)methyl)imidazo[1,2-c]pyrimidin-5-ol] showed an IC50 of 29 nM.
`COc1cc2nc(CN(C)[C@H]3CCCc4cccnc43)cn2c(N2CCNCC2)n1` [Example 104, (S)—N-((7-methoxy-5-(piperazin-1-yl)imidazo[1,2-c]pyrimidin-2-yl)methyl)-N-methyl-5,6,7,8-tetrahydroquinolin-8-amine] was tested, and the IC50 was 190 nM.
`CN(Cc1cn2c(N3CCN(C(=O)Nc4cccnc4)CC3)nccc2n1)[C@H]1CCCc2cccnc21` [Example 45, 4-[2-({methyl[(S)-5,6,7,8-tetrahydroquinolin-8-yl]amino}methyl)imidazo[1,2-c]pyrimidin-5-yl]-N-(pyridin-3-yl)piperazine-1-carboxamide] showed an IC50 of 66 nM.
Molecule `CN(Cc1cn2c(N3CCN(Cc4ncc[nH]4)CC3)nccc2n1)[C@H]1CCCc2cccnc21` [Example 49, (S)-N-({5-[4-(1H-imidazol-2-ylmethyl)piperazin-1-yl]imidazo[1,2-c]pyrimidin-2-yl}methyl)-N-methyl-5,6,7,8-tetrahydroquinolin-8-amine] has an IC50 of 2.8 nM.
`CN(Cc1cn2c(N3CCN(Cc4ccco4)CC3)nccc2n1)[C@H]1CCCc2cccnc21` [Example 54, (S)-N-({5-[4-(furan-2-ylmethyl)piperazin-1-yl]imidazo[1,2-c]pyrimidin-2-yl}methyl)-N-methyl-5,6,7,8-tetrahydroquinolin-8-amine] was tested, and the IC50 was 5.6 nM.
“(8S)-N-((5-(3-(dimethylamino)pyrrolidin- 1-yl)imidazo[1,2-c]pyrimidin-2- yl)methyl)-N-methyl-5,6,7,8- tetrahydroquinolin-8-amine [Example 75]” gave an IC50 of 11 nM.
Molecule `CC(C)CN1CCN(c2nccc3nc(CN(C)[C@H]4CCCc5cccnc54)cn23)CC1` [Example 22, (S)-N-methyl-N-({5-[4-(2-methylpropyl)piperazin-1-yl]imidazo[1,2-c]pyrimidin-2-yl}methyl)-5,6,7,8-tetrahydroquinolin-8-amine] has an IC50 of 42 nM.
Molecule `CN(Cc1cn2c(N3CCN(Cc4cncn4C)CC3)nccc2n1)[C@H]1CCCc2cccnc21` [Example 27, (S)-N-methyl-N-[(5-{4-[(1-methyl-1H-imidazol-5-yl)methyl]piperazin-1-yl}imidazo[1,2-c]pyrimidin-2-yl)methyl]-5,6,7,8-tetrahydroquinolin-8-amine] has an IC50 of 75 nM.
`CN(Cc1cn2c(N3CCN(CCF)CC3)nccc2n1)[C@H]1CCCc2cccnc21` [Example 12, (S)—N-((5-(4-(2-Fluoroethyl)piperazin-1-yl)imidazo[1,2-c]pyrimidin-2-yl)methyl)-N-methyl-5,6,7,8-tetrahydroquinolin-8-amine] was tested, and the IC50 was 54 nM.
Molecule `CN(Cc1cn2c(N3CCN(Cc4cccc(C#N)c4)CC3)nccc2n1)[C@H]1CCCc2cccnc21` [Example 66, 3-({4-[2-({methyl[(S)-5,6,7,8-tetrahydroquinolin-8-yl]amino}methyl)imidazo[1,2-c]pyrimidin-5-yl]piperazin-1-yl}methyl)benzonitrile] has an IC50 of 9.4 nM.
Work on `CN(Cc1cn2c(N3CCN4CCOCC4C3)nccc2n1)[C@H]1CCCc2cccnc21` (single isomer, unassigned) [Example 91] yielded an IC50 greater than 30000 nM.
`COc1cc2nc(CN(C)[C@H]3CCCc4cccnc43)cn2c(N2CCN(C)CC2)n1` [Example 105, (S)—N-((7-Methoxy-5-(4-methylpiperazin-1-yl)imidazo[1,2-c]pyrimidin-2-yl)methyl)-N-methyl-5,6,7,8-tetrahydroquinolin-8-amine] showed an IC50 of 100 nM.
Work on `[2H]C([2H])([2H])N1CCN(c2nccc3nc(CN(C)[C@H]4CCCc5cccnc54)cn23)CC1` [Example 17, (S)—N-Methyl-N-((5-(4-(methyl-d3)piperazin-1-yl)imidazo[1,2-c]pyrimidin-2-yl)methyl)-5,6,7,8-tetrahydroquinolin-8-amine] yielded an IC50 of 3.7 nM.
`CN(Cc1cn2c(N3CCC(N)C3)nccc2n1)[C@H]1CCCc2cccnc21` (stereo partly drawn) [Example 74, (8S)-N-((5-(3-aminopyrrolidin-1-yl)imidazo[1,2-c]pyrimidin-2-yl)methyl)-N-methyl-5,6,7,8-tetrahydroquinolin-8-amine] was tested, and the IC50 was 79 nM.
For `CN(Cc1cn2c(N3CCN(CC4CC4)CC3)nccc2n1)[C@H]1CCCc2cccnc21` [Example 21, (8S)-N-({5-[4-(cyclopropylmethyl)piperazin-1-yl]imidazo[1,2-c]pyrimidin-2-yl}methyl)-N-methyl-5,6,7,8-tetrahydroquinolin-8-amine], the IC50 was 17 nM.
Work on `CN(Cc1cn2c(N3CCNCC3)nccc2n1)[C@H]1CCCc2cccnc21` [Example 5, (S)—N-Methyl-N-((5-(piperazin-1-yl)imidazo[1,2-c]pyrimidin-2-yl)methyl)-5,6,7,8-tetrahydroquinolin-8-amine] yielded an IC50 of 8.1 nM.
Molecule `COC(=O)N1CCN(c2nccc3nc(CN(C)[C@H]4CCCc5cccnc54)cn23)CC1` [Example 13, (S)-Methyl 4-(2-((methyl(5,6,7,8-tetrahydroquinolin-8-yl)amino)methyl)imidazo[1,2-c]pyrimidin-5-yl)piperazine-1-carboxylate] has an IC50 of 5670 nM.
Work on `COc1nc(N2CCN(C)CC2)n2cc(CN(C)[C@H]3CCCc4cccnc43)nc2c1CO` [Example 106, (S)-(7-Methoxy-2-((methyl(5,6,7,8-tetrahydroquinolin-8-yl)amino)methyl)-5-(4-methylpiperazin-1-yl)imidazo[1,2-c]pyrimidin-8-yl)methanol] yielded an IC50 of 370 nM.
Work on `CN(Cc1cn2c(N3CCN(CC4CCOC4)CC3)nccc2n1)[C@H]1CCCc2cccnc21` (stereo partly drawn) [Example 32, (S)-N-methyl-N-({5-[4-(oxolan-3-ylmethyl)piperazin-1-yl]imidazo[1,2-c]pyrimidin-2-yl}methyl)-5,6,7,8-tetrahydroquinolin-8-amine] yielded an IC50 of 310 nM.
